Reference: ChEMBL document CHEMBL6121036, “Evaluation of Cereblon-Directing Warheads for the Development of Orally Bioavailable PROTACs” (J Med Chem, 2025)
Converted amounts (≈) assume the structure as drawn. Blank lines part the entries; values can stand above or below the molecule they belong to. The source made the active and inactive calls. The calls are words filed in the database; no cut-off is given here.

Key:
[1] = Effect on CCNF level in human MV4-11 cells assessed as fold change at 100 nM measured after 4 hrs; format: functional
[2] = molecular target: T1, Protein cereblon/Bromodomain-containing protein 4 (Homo sapiens, UniProt O60885+Q96SW2); experiment: PROTAC activity at CRBN/Hibit-tagged BRD4 (unknown origin) expressed in HEK293 cells co-expressing LgBiT assessed as degradation of BRD4 incubated for 24 hrs by […] glo-max assay; format: cell-based
[3] = molecular target: T1, Protein cereblon/Bromodomain-containing protein 4; experiment: PROTAC activity at CRBN/Hibit-tagged BRD4 (unknown origin) expressed in HEK293 cells co-expressing LgBiT assessed as degradation rate incubated for 24 hrs by […] glo-max assay; format: cell-based
[4] = Permeability in MDCK-II cells incubated for 1 hr by UPLC/MS/UV analysis; format: ADME, cell-based, Canis lupus familiaris; conditions: dog, read-out: permeability
[5] = Chemical stability in human MV4-11 cell culture media at 400 uM measured upto 72 hrs by UPLC analysis; format: physicochemical
[6] = Effect on NSA2 level in human MV4-11 cells assessed as fold change at 100 nM measured after 4 hrs; format: functional
[7] = test system: HD-MB03; experiment: Cytotoxicity against human HD-MB03 cells assessed as reduction in cell viability incubated for 72 hrs by cell-titer glo assay; format: functional, cell-based; conditions: HD-MB03, 72 h
[8] = molecular target: T2, Protein cereblon/Bromodomain-containing protein 4/DNA damage-binding protein 1 (Homo sapiens) (UniProt O60885+Q96SW2+Q16531); experiment: Binding affinity to his-tagged CRBN/DDB1/GST-tagged BRD4 (49 to 170 residues)(unknown origin) assessed as ternary complex formation (AUC) incubated for 1 hr by luminescence based Alphascreen assay; format: protein assay
[9] = Effect on BRD3 level in human MV4-11 cells assessed as fold change at 100 nM measured after 4 hrs; format: functional
[10] = AUC last in female CD1 mouse at 10 mg/kg, po measured upto 24 hrs by LC-MS/MS analysis; format: ADME, organism-based; conditions: in vivo
[11] = Effect on TP53 level in human MV4-11 cells assessed as fold change at 100 nM measured after 4 hrs; format: functional
[12] = test system: MV4-11; experiment: Cytotoxicity against human MV4-11 cells assessed as reduction in cell viability incubated for 72 hrs by cell-titer glo assay; format: functional, cell-based; conditions: MV4-11, 72 h
[13] = Effect on ZFP36L2 level in human MV4-11 cells assessed as fold change at 100 nM measured after 4 hrs; format: functional
[14] = Effect on CCND3 level in human MV4-11 cells assessed as fold change at 100 nM measured after 4 hrs; format: functional
[15] = Effect on NOP53 level in human MV4-11 cells assessed as fold change at 100 nM measured after 4 hrs; format: functional
[16] = Effect on ZBTB21 level in human MV4-11 cells assessed as fold change at 100 nM measured after 4 hrs; format: functional
[17] = Metabolic stability in mouse liver microsomes assessed as half life; format: ADME, Microsome; conditions: liver microsomes
[18] = Chemical stability in human HD-MB03 cell culture media at 400 uM measured upto 72 hrs by UPLC analysis; format: physicochemical
[19] = Effect on BRD2 level in human MV4-11 cells assessed as fold change at 100 nM measured after 4 hrs; format: functional
[20] = Effect on BRD4 level in human MV4-11 cells assessed as fold change at 100 nM measured after 4 hrs; format: functional
[21] = Effect on CDC42EP3 level in human MV4-11 cells assessed as fold change at 100 nM measured after 4 hrs; format: functional
[22] = Effect on FGL2 level in human MV4-11 cells assessed as fold change at 100 nM measured after 4 hrs; format: functional
[23] = Effect on MYC level in human MV4-11 cells assessed as fold change at 100 nM measured after 4 hrs; format: functional
[24] = Cmax in female CD1 mouse at 10 mg/kg, po measured upto 24 hrs by LC-MS/MS analysis; format: ADME, organism-based; conditions: in vivo
[25] = molecular target: T1, Protein cereblon/Bromodomain-containing protein 4; experiment: PROTAC activity at CRBN/Hibit-tagged BRD4 (unknown origin) expressed in HEK293 cells co-expressing LgBiT assessed as degradation of BRD4 incubated for 24 hrs by […] glo-max assay relative to control; format: cell-based
[26] = Effect on RNF166 level in human MV4-11 cells assessed as fold change at 100 nM measured after 4 hrs; format: functional
[27] = Effect on PLK1 level in human MV4-11 cells assessed as fold change at 100 nM measured after 4 hrs; format: functional
[28] = Kinetic aqueous solubility of the compound at pH 7.4; format: physicochemical; conditions: read-out: Kinetic_solubility
[29] = Effect on AURKA level in human MV4-11 cells assessed as fold change at 100 nM measured after 4 hrs; format: functional
[30] = Effect on MCL1 level in human MV4-11 cells assessed as fold change at 100 nM measured after 4 hrs; format: functional
[31] = Stability in mouse plasma assessed as half life by UPLC-MS/MS analysis; format: ADME, cell-free
[32] = Effect on FYTTD1 level in human MV4-11 cells assessed as fold change at 100 nM measured after 4 hrs; format: functional
[33] = Effect on PLAU level in human MV4-11 cells assessed as fold change at 100 nM measured after 4 hrs; format: functional
[34] = test system: HEK293; experiment: Cytotoxicity against HEK293 cells expressing LgBiT fused HiBiT-BRD2 measured after 24 hrs by cell titer-glo assay; format: toxicity, cell-based; conditions: human, hek293, 24 h
[35] = molecular target: T2, Protein cereblon/Bromodomain-containing protein 4/DNA damage-binding protein 1 (Homo sapiens); experiment: Binding affinity to his-tagged CRBN/DDB1/GST-tagged BRD4 (49 to 170 residues)(unknown origin) assessed as ternary complex formation by measuring AUC incubated for 1 hr by luminescence based Alphascreen assay; format: protein assay

- DC50 [2]: 2.74 nM
- Activity [3]: 0.047 fRLU/hr
- Papp at 1 h [4]: 0.29 ×10⁻⁶ cm/s
- Stability [5]: Stable
- AUC(0-t) at 24 h [10]: 1420 ng·h/mL
- half-life [17]: 1.42 h
- Stability [18]: Stable
- Cmax [24]: 345 ng/mL
- Emax [25]: 46.4%
- solubility kinetic [28]: 72.5 µM (≈ 54.7 µg/mL)
- half-life [31]: 16.5 h
Compound: Cc1sc2c(c1C)C(c1ccc(Cl)cc1)=N[C@@H](CC(=O)N1CCC(CN3CCN(c4ccc(N5CCC(=O)NC5=O)cc4)CC3)CC1)c1nnc(C)n1-2
- fold change (FC) [1]: -0.89
- fold change (FC) [6]: -0.85
- IC50 [7]: 15.1 nM
- Activity [8]: Active
- fold change (FC) [9]: -2.99
- fold change (FC) [11]: 1.65
- IC50 [12]: 0.66 nM
- fold change (FC) [13]: -0.91
- fold change (FC) [14]: -0.7
- fold change (FC) [15]: -0.72
- fold change (FC) [16]: -0.1
- fold change (FC) [19]: -2.79
- fold change (FC) [20]: -2.92
- fold change (FC) [21]: -1.16
- fold change (FC) [22]: -1
- fold change (FC) [23]: -2.09
- fold change (FC) [26]: -0.3
- fold change (FC) [27]: -0.67
- fold change (FC) [29]: -0.74
- fold change (FC) [30]: -1.01
- fold change (FC) [32]: -1.21
- fold change (FC) [33]: -0.89

Compound: Cc1sc2c(c1C)C(c1ccc(Cl)cc1)=N[C@@H](CC(=O)NCCc1ccc(C3CCC(=O)NC3=O)cc1)c1nnc(C)n1-2 (stereo partly drawn)
- Activity [34]: Non-toxic
- DC50 [2]: 0.19 nM
- Activity [3]: 0.733 fRLU/hr
- IC50 [7]: 2.23 nM
- Activity [8]: Active
- IC50 [12]: 0.18 nM
- half-life [17]: 0.27 h
- AUC [35]: 292000
- Emax [25]: 98%
- solubility kinetic [28]: 71.4 µM (≈ 43.9 µg/mL)
